Data: PubChem BioAssay AID1671243
pIC50: −log10 of the molar value.

Biological target: Casein kinase I isoform alpha (Homo sapiens) (UniProt P48729)
Experiment: CSNK1A1 kinase inhibitors, dose response, biochemical, Z'-LYTE, FRET, direct format (AID 1671243)
Settings: Z'-LYTE FRET kinase activity assay

Sequence of Casein kinase I isoform alpha (Homo sapiens) (P48729 whole entry, looked up, canonical isoform): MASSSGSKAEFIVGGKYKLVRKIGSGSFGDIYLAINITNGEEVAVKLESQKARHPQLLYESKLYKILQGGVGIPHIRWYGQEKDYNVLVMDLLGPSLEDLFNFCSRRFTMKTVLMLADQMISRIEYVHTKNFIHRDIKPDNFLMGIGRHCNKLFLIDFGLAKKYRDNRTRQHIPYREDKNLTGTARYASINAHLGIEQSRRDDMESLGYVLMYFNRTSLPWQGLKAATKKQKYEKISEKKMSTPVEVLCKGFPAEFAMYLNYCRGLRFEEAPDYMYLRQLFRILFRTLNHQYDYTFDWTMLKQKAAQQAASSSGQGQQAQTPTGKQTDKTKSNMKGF

pIC50: 4.75
Compound: Brc1c(Br)c(Br)c2n[nH]nc2c1Br
